Our source for the EC50 values is patent US20190359645A1, “2'3'-CYCLIC DINUCLEOTIDES COMPRISING CARBOCYCLIC NUCLEOTIDE” (Institute of Organic Chemistry and Biochemistry ASCR, V.V.I., priority 2018, published 2019).

In this assay the target is WT STING (Homo sapiens, UniProt Q86WV6, H232R). In words: Digitonin assay using 293T wtSTING-FL reporter cells. It counts as cell-based. Further details: host or cells: 293T (ATCC CRL-3216), stably transfected; also carries the 4xISRE firefly luciferase reporter. The settings on record: 293T wtSTING-FL cells, digitonin buffer 30 min, then 5 h, ISRE firefly luciferase reporter; read-out: Digitonin assay EC50 WT STING. The text has this:
Two complementary oligonucleotides of the sequence […] […] […] […] (SEQ ID NO: 1) and […] […] (SEQ ID NO:2) containing four interferon-sensitive response elements (ISRE) were synthesized by Sigma Aldrich (Czech Republic, Prague). The oligonucleotides were mixed in equal molar amounts, hybridized, and cleaved by restriction endonucleases HindIII (cat. #. R^0104S, NEB, Ipswich, USA) and BglII (cat. # R^0144S, NEB, Ipswich, USA). Ultimately, they were ligated into plasmid pGL4.27 (cat. # E6651, Promega, Madison, USA) linearized with the same enzymes. As a result, the sequence with four ISRE sites was placed upstream of the minimum promoter of firefly luciferase reporter gene.
293T cells (cat. # CRL-3216, ATCC, Manassas, USA) were seeded a day before transfection at density 125,000 cells per cm^2 onto poly-D-lysine (cat. # P6407, Sigma Aldrich, Czech Republic) coated six well plates in antibiotic free DMEM with high glucose (cat. # D5796, Sigma Aldrich, Czech Republic) supplemented with 10% heat inactivated FBS (cat. # S1520, Biowest, Riverside, USA). On the day of transfection, 2.5 μg of the plasmid pUNO1-hSTING-WT (cat. # punol-hstingwt, InvivoGen, San Diego, USA,) encoding human wild type STING (WT STING) was diluted in 125 μL OptiMEM medium (cat. #31985062, ThermoFisher, Waltham, USA) and mixed with 125 μL of the same medium containing 12.5 μL of Lipofectamine 2000 (cat. #11668019, ThermoFisher, Waltham, USA). After 5 minutes incubation at room temperature (RT), 250 μL of the mixture was added dropwise to the cells in one well. Cells were incubated 36 hours at 37° C. with 5% CO2, and then detached with 0.05% Trypsin and 0.22 g/L EDTA (both cat. # L0941, Biowest, Riverside, USA).
Transfected cells were seeded onto poly-D-lysine coated six well plates at density 50,000 cells per 1 cm^2 in DMEM medium with high glucose containing 10% heat inactivated FBS, […] blasticidin (cat. # ant-bl-05, InvivoGen, San Diego, USA), 0.06 mg/ml Penicillin G and 0.1 mg/ml Streptomycin Sulfate (both cat. #. L0018, Biowest, Riverside, USA). The medium was replenished every 3-4 days until visible colonies of cells resistant to blasticidin were formed.
Blasticidin resistant cells stably expressing WT STING were further transfected with […] plasmid following the same procedure as described above. The transfected cells were selected for the resistance to 300 μg/mL hygromycin (cat. #. 10687010, ThermoFisher, Waltham, USA) in DMEM with high glucose containing 10% heat inactivated FBS, […] blasticidin, 0.06 mg/ml Penicillin G and 0.1 mg/ml Streptomycin Sulfate. Homogeneous culture of stably double transfected cells was prepared by limiting dilution of cells in 96 well plates and wells with cells were selected that originated from a single cell. These cells were expanded, and expression of WT STING was confirmed by western blot using monoclonal mouse anti STING antibodies (cat. #. MAB7169, 1:1000 dilution; […] cat. #. HAF007, 1:2000 dilution, both from R&D Systems, Minneapolis, USA), and by induction of firefly luciferase expression in the presence of 50 μM STING agonist 2′3′ cGAMP (cat. # tlrl-nacga23, InvivoGen, San Diego, USA). Genomic DNA from the transfected cells was amplified with primers pUNO1_Seq_F ([…]) (SEQ ID NO:3) and pUNO1_Seq_R ([…]) (SEQ ID NO:4) that were complementary to pUNO1 plasmid and the presence of WT STING gene in the transfected cells was confirmed by DNA sequencing.
293T wtSTING-FL cells were seeded at density of 250,000 cells per cm^2 onto 96 well poly-D-lysine coated plates in 100 μl DMEM with high glucose supplemented with 10% heat inactivated FBS. […]
(In a reporter assay the amount or activity of a reporter protein is the signal.)

Sequence of WT STING (Q86WV6 whole entry H232R): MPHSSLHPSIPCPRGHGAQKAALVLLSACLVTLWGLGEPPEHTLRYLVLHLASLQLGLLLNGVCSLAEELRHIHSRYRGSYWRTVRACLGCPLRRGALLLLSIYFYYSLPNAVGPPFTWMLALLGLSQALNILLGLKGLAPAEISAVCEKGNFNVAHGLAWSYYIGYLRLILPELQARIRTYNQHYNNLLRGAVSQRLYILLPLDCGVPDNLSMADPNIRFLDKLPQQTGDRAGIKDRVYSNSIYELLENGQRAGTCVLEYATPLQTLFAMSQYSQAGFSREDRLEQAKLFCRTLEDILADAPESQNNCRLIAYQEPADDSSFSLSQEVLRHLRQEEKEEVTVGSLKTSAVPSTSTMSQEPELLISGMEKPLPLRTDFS

Broadly, the EC50 is the concentration needed to bring the measured effect to its halfway point. For the molecule `CSc1ncnc2c1ncn2[C@@H]1O[C@@H]2COP(=O)(O)OC3C(O)[C@@H](COP(=O)(O)OC2C1O)C[C@H]3n1cnc2c(=O)[nH]cnc21` (stereo partly drawn) [Compound 125, (1S,6R,8R,9R,10S,15R,17R,18R)-3,9,12,18-tetrahydroxy-8-[16-(methylsulfanyl)-9H-purin-9-yl]-17-(6-oxo-6,9-dihydro-1H-purin-9-yl)-2,4,7,11,13-pentaoxa-3λ^5,12λ^5-diphosphatricyclo[13.2.1.0^6,10]octadecane-3,12-dione], the concentration for a half-maximal effect (EC50) is 210 nM.

In the case of `Nc1ncnc2c1ncn2[C@@H]1O[C@@H]2COP(=O)(O)OC3C(O)[C@@H](COP(=O)(O)OC2C1O)C[C@H]3n1cnc2c(=O)[nH]cnc21` (stereo partly drawn) [Compound 121, (6R,8R,15R,17R)-8-(6-amino-9H-purin-9-yl)-3,9,12,18-tetrahydroxy-17-(6-oxo-6,9-dihydro-1H-purin-9-yl)-2,4,7,11,13-pentaoxa-3λ^5,12λ^5-diphosphatricyclo[13.2.1.0^6,10]octadecane-3,12-dione], the EC50 was determined as 500 nM.

As for `Nc1ncnc2c1ncn2[C@@H]1O[C@@H]2COP(=O)(S)O[C@@H]3[C@H](F)[C@@H](COP(=O)(S)O[C@H]2[C@H]1F)C[C@H]3n1cnc2c(=O)[nH]cnc21` (single isomer, unassigned) [Compound 128a], the EC50 stood at 40 nM.

As to `CSc1nc(N)nc2c1ncn2[C@@H]1O[C@@H]2COP(=O)(O)OC3C(O)[C@@H](COP(=O)(O)OC2C1O)C[C@H]3n1cnc2c(=O)[nH]c(N)nc21` (stereo partly drawn) [Compound 112, (6R,8R,15R,17R)-8-[2-amino-6-(methylsulfanyl)-9H-purin-9-yl]-17-(2-amino-6-oxo-6,9-dihydro-1H-purin-9-yl)-3,9,12,18-tetrahydroxy-2,4,7,11,13-pentaoxa-3λ^5,12λ^5-diphosphatricyclo[13.2.1.0^6,10]octadecane-3,12-dione], the EC50 is 15100 nM.

On to `Nc1nc2c(ncn2[C@@H]2C[C@@H]3COP(=O)(O)OC4C(O)[C@H](n5cnc6c(=O)[nH]cnc65)O[C@@H]4COP(=O)(O)OC2C3O)c(=O)[nH]1` (stereo partly drawn) [Compound 104, (6R,8R,15R,17R)-17-(2-amino-6-oxo-6,9-dihydro-1H-purin-9-yl)-3,9,12,18-tetrahydroxy-8-(6-oxo-6,9-dihydro-1H-purin-9-yl)-2,4,7,11,13-pentaoxa-3λ^5,12λ^5-diphosphatricyclo[13.2.1.0^6,10]octadecane-3,12-dione], for which the EC50 is 100 nM.

For the molecule `Nc1ncnc2c1ccn2[C@@H]1O[C@@H]2COP(=O)(O)OC3C(O)[C@@H](COP(=O)(O)OC2C1O)C[C@H]3n1cnc2c(=O)[nH]cnc21` (stereo partly drawn) [Compound 122, (6R,8R,15R,17R)-8-{4-amino-7H-pyrrolo[2,3-d]pyrimidin-7-yl}-3,9,12,18-tetrahydroxy-17-(6-oxo-6,9-dihydro-1H-purin-9-yl)-2,4,7,11,13-pentaoxa-3λ^5,12λ^5-diphosphatricyclo[13.2.1.0^6,10]octadecane-3,12-dione], the EC50 was 140 nM.

Turning to `Nc1nc(N)c2ncn([C@@H]3O[C@@H]4COP(=O)(O)OC5C(O)[C@@H](COP(=O)(O)OC4C3O)C[C@H]5n3cnc4c(=O)[nH]c(N)nc43)c2n1` (stereo partly drawn) [Compound 105, (6R,8R,15R,17R)-17-(2-amino-6-oxo-6,9-dihydro-1H-purin-9-yl)-8-(2,6-diamino-9H-purin-9-yl)-3,9,12,18-tetrahydroxy-2,4,7,11,13-pentaoxa-3λ^5,12λ^5-diphosphatricyclo[13.2.1.0^6,10]octadecane-3,12-dione], the EC50 came out at 500 nM.

Take `CSc1ncnc2c1ncn2[C@@H]1O[C@@H]2COP(=O)(O)OC3C(O)[C@@H](COP(=O)(O)OC2C1O)C[C@H]3n1cnc2c(=O)[nH]c(N)nc21` (stereo partly drawn) [Compound 110, (6R,8R,15R,17R)-17-(2-amino-6-oxo-6,9-dihydro-1H-purin-9-yl)-3,9,12,18-tetrahydroxy-8-[6-(methylsulfanyl)-9H-purin-9-yl]-2,4,7,11,13-pentaoxa-3λ^5,12λ^5-diphosphatricyclo[13.2.1.0^6,10]octadecane-3,12-dione]: the EC50 amounted to 230 nM.
